According to US9533953B2, “Method of preparation of crystal forms of 4-(cyclopropylmethoxy)-n-(3,5-dichloro-1-oxidopyridyn-4-yl)-5-methoxypyridine-2-carboxamide and crystal forms thereof” (SANOFI, priority 2012, dated 2017):
Each block holds one compound with its values, some of them ahead of it.

What was measured:
Type in all cases: physicochemical
[1] = Thermo-Gravimetric Analysis (TGA)
Description: Analyses are carried out on a T.A. instruments TGAQ500 analyzer. Mass calibration is performed with 10 and 100 mg certified masses and the instrument is temperature-calibrated with alumel and nickel standards (Curie points of respectively 154° C. and 354° C.). Samples are exposed to a constant nitrogen stream of 60 mL/min and temperature ranges from 20° C. to 250° C. at a 5° C./min rate. The quantity of product lies between 2 and 5 mg. The powder is deposited in an open aluminum sample pan, which is itself placed in a platinum pan.

[2] = Water-Activity Isotherm (DVS), water sorption/desorption at 25° C.
Description: All experiments are performed on a DVS-1 automated gravimetric vapor sorption analyser (Surface Measurement Systems Ltd., London, UK). The DVS-1 measures the uptake and loss of vapor gravimetrically using a Cahn D200 recording ultra-microbalance with a mass resolution of ±0.1 μg. A controlled relative humidity is generated by mixing different proportions of dry and water saturated carrier gas streams (monitored by mass flow controllers). The temperature is maintained constant, ±0.1° C., by enclosing the entire system in a temperature-controlled incubator. A sample size between 4 and 10 mg is used. Prior to being exposed to any water vapor the samples are dried at 0% RH to remove any surface water present and establish a dry, baseline mass. Next, the samples are exposed to an increasing relative humidity raised by a step of 5% RH from 0% to 90% RH.

[3] = Physical stability of the crystal form on heating, humidity and storage (XRPD); conditions: for temperature of transformation into another crystal form: A into B, D into E, E into B, G desolvates into D; for desolvation behaviour: slight heating / upon heating
Description: High-resolution diagrams are recorded at ambient conditions on a PANalytical X'Pert Pro MPD powder diffractometer using the Bragg-Brentano (vertical 0-20 configuration) parafocusing geometry coupled with a X'Celerator detector. A sealed copper anode X-ray tube is used, running at 45 kV and 40 mA levels. An incident beam monochromator (Johansson type: a symmetrically cut curved germanium (111) crystal) produces pure Cu Kα1 radiation (λ[…]=1.54060 Å). A thin layer of the product is deposited on a single-crystal silicon wafer, cut out according to Si (510) crystallographic orientation that, by systematic extinction, impedes any Bragg reflection. In order to bring more crystallites into the diffraction position and thus reduce the influence of particle statistics on the measurements, a sample spinner is used. The spinner rotation speed is set at 1 revolution per second. The angular range extends from 2 to 50° in 2θ, with a 0.02° step size in 2θ. A variable counting time from 100 to 2500 seconds per step was used.
XRPD analyses are carried out on a Siemens-Bruker D5000 Matic powder diffractometer using the Bragg-Brentano (vertical θ-2θ configuration) parafocusing geometry. A thin layer of the product is deposited on a single-crystalline silicon wafer, cut out according to Si(510) crystallographic orientation that, by systematic extinction, impedes any Bragg reflection. A sealed cobalt anode X-ray tube running at 40 kV and 30 mA levels is used. Two lines are typically emitted: CoKα1 (λ=1.7890 Å) and CoKα2 (λ=1.7929 Å). […] The primary beam passes through a parallel plate collimator (0.2 mm Soller slits), then through a divergence slit (0.2 mm). A Braun 50 M multicanal linear detector completes the setup. It has a 10°-wide detection window in angle 2θ.

[4] = Behaviour under mechanical strain (mortar grinding, jet-milling); conditions: for effect of jet-milling on the crystalline form: DSC / XRPD
Description: Crystal Form A is of particular interest because of its behaviour under mechanical strain. The effect of 30 seconds of mortar grinding was evaluated. […] The behaviour of amorphous phase present in ground form A was also studied. No recrystallization of the amorphous phase was detected through sorption/desorption of water at 25° C. Nevertheless, maturation of ground samples in pure water for 6 days at room temperature led to partial recrystallization of the amorphous phase into form A.
A particle size close to 5 μm could be reached. The DSC analyses indicate that there is no modification of the crystalline structure before and after jet-milling of Form A.
A particle size close to 5 μm could be reached.

SMILES: COc1cnc(C(=O)Nc2c(Cl)c[n+]([O-])cc2Cl)cc1OCC1CC1 [Crystal Form A, 4-(cyclopropylmethoxy)-N-(3,5-dichloro-1-oxidopyridin-4-yl)-5-methoxypyridine-2-carboxamide]
- temperature beyond which thermal decomposition is observed [1]: > 190 °C
- TGA weight loss ([1]; from room temperature up to 190° C.): no weight loss
- hygroscopicity ([2]; 25° C. isotherm): not hygroscopic
- water uptake ([2]; 25° C., up to 90% of relative humidity (RH)): no significant water uptake
- temperature of transformation into another crystal form ([3]; upon heating): above 100 °C
- amorphous phase after grinding (XRPD) ([4]; 30 seconds of mortar grinding): appearance of amorphous phase was detected
- polymorphic transition after grinding (XRPD) ([4]; 30 seconds of mortar grinding): no observed polymorphic transition
- particle size reached by jet-milling [4]: ~5 μm
- effect of jet-milling on the crystalline form [4]: without any impact on the crystalline form

SMILES: COc1cnc(C(=O)Nc2c(Cl)c[n+]([O-])cc2Cl)cc1OCC1CC1 [Crystal Form B, 4-(cyclopropylmethoxy)-N-(3,5-dichloro-1-oxidopyridin-4-yl)-5-methoxypyridine-2-carboxamide]
- temperature beyond which thermal decomposition is observed [1]: > 190 °C

SMILES: COc1cnc(C(=O)Nc2c(Cl)c[n+]([O-])cc2Cl)cc1OCC1CC1 [Crystal Form C, 4-(cyclopropylmethoxy)-N-(3,5-dichloro-1-oxidopyridin-4-yl)-5-methoxypyridine-2-carboxamide]
- behaviour on storage ([3]; 15 months of storage in ambient conditions): transformed into Crystal Form D and amorphous phase

SMILES: COc1cnc(C(=O)Nc2c(Cl)c[n+]([O-])cc2Cl)cc1OCC1CC1 [Crystal Form D, 4-(cyclopropylmethoxy)-N-(3,5-dichloro-1-oxidopyridin-4-yl)-5-methoxypyridine-2-carboxamide]
- temperature beyond which thermal decomposition is observed [1]: > 205 °C
- TGA weight loss ([1]; between 20 and 100° C.): 0.2%
- TGA weight loss ([1]; between 100 and 205° C.): no weight loss
- total water gain ([2]; 25° C., at 90% RH): 8.7%
- total water gain expressed as moles of water ([2]; 25° C., at 90% RH): 2 moles of water
- loss of water, last desorption step ([2]; 25° C., between 70% and 0% RH, without hysteresis): 1.3%
- water desorption, second desorption step ([2]; 25° C., between 75% and 70% RH): 6.4%
- water uptake, second sorption step ([2]; 25° C., between 85% and 90% RH): 6.9%
- temperature range in which the form is stable / physically unaltered ([3]; upon heating): up to 110 °C
- temperature of transformation into another crystal form ([3]; upon heating): 110 °C
- particle size reached by jet-milling [4]: ~5 μm
- effect of jet-milling on the crystalline form [4]: without any impact on the crystalline form

SMILES: COc1cnc(C(=O)Nc2c(Cl)c[n+]([O-])cc2Cl)cc1OCC1CC1 [Crystal Form E, 4-(cyclopropylmethoxy)-N-(3,5-dichloro-1-oxidopyridin-4-yl)-5-methoxypyridine-2-carboxamide]
- TGA weight loss ([1]; between 100 and 170° C.): 0.8%
- TGA weight loss ([1]; from room temperature to 100° C.): no weight loss
- stability under room conditions ([3]; room conditions): stable under room conditions
- temperature of transformation into another crystal form ([3]; upon heating): 140 °C

SMILES: COc1cnc(C(=O)Nc2c(Cl)c[n+]([O-])cc2Cl)cc1OCC1CC1 [Crystal Form G, 4-(cyclopropylmethoxy)-N-(3,5-dichloro-1-oxidopyridin-4-yl)-5-methoxypyridine-2-carboxamide]
- temperature of transformation into another crystal form ([3]; upon heating): 70 °C

Further lines, results first:

- desolvation behaviour [3]: desolvates easily into Crystal Form D
SMILES: COc1cnc(C(=O)Nc2c(Cl)c[n+]([O-])cc2Cl)cc1OCC1CC1 [Crystal Form H, 4-(cyclopropylmethoxy)-N-(3,5-dichloro-1-oxidopyridin-4-yl)-5-methoxypyridine-2-carboxamide]

- desolvation behaviour [3]: desolvates easily into form D
SMILES: COc1cnc(C(=O)Nc2c(Cl)c[n+]([O-])cc2Cl)cc1OCC1CC1 [Crystal Form I, 4-(cyclopropylmethoxy)-N-(3,5-dichloro-1-oxidopyridin-4-yl)-5-methoxypyridine-2-carboxamide]
